The results in this text go back to patent US11365188B2, “JAK inhibitors” (priority 2018, dated 2022).

Common to all, as to format: biochemical
In one assay the target is JAK1 (Homo sapiens, UniProt P23458). Put plainly: JAK Kinase Assay (JAK1, Caliper EZ Reader, fluoresceinated peptide). Particulars: ATP 76.5 μM; JAK1 10 nM; 120 minutes at room temperature; read-out: JAK1 inhibition.
The next assay deals with TYK2 (Homo sapiens, UniProt P29597). Put plainly: TYK2 Assay (Caliper EZ Reader, fluoresceinated peptide). Particulars: ATP 35.4 μM; TYK2 10 nM; 10 minutes at room temperature; read-out: TYK2 inhibition. How it is done: 384-well plates in the left foot butoxy measured progress. The final assay volume was 25 μL, 250 nL 100× compounds, 10 μL enzyme mix and 15 μL substrate mix (fluoresceinated peptide and ATP) in assay buffer (50 mM HEPES (pH 7.5), 10 mM MgCl2, 0.01% TritonX-100, 0.01% Brij35, 0.5 mM EGTA and 2 mM DTT) prepared as test compound. B mixing the TYK2 with substrates and test compounds to start the reaction. The reaction mixture was incubated for 10 minutes at room temperature, then added 30 μL stop buffer for each sample to terminate the reaction with 50 mM EDTA. After termination of the kinase reaction, the proportion of phosphorylated product was determined as a fraction of total peptide substrate using Caliper EZ Reader 1. Inhibition data were calculated by comparison with 100% of the reaction mixture without enzyme inhibition and vehicle-only reaction mixture billion % inhibition compared. The final concentration of reagents in the assays is: ATP, 35.4 μM; TYK2 fluorescent peptide (5-FAM-KKKKEEIYFFF-CONH2), 3 μM; TYK2, 10 nM; and DMSO, 1% Dose response curve were generated to determine the concentration required for IC50 of TYK2 activity.
Chain of TYK2 (P29597 whole entry, species assumed): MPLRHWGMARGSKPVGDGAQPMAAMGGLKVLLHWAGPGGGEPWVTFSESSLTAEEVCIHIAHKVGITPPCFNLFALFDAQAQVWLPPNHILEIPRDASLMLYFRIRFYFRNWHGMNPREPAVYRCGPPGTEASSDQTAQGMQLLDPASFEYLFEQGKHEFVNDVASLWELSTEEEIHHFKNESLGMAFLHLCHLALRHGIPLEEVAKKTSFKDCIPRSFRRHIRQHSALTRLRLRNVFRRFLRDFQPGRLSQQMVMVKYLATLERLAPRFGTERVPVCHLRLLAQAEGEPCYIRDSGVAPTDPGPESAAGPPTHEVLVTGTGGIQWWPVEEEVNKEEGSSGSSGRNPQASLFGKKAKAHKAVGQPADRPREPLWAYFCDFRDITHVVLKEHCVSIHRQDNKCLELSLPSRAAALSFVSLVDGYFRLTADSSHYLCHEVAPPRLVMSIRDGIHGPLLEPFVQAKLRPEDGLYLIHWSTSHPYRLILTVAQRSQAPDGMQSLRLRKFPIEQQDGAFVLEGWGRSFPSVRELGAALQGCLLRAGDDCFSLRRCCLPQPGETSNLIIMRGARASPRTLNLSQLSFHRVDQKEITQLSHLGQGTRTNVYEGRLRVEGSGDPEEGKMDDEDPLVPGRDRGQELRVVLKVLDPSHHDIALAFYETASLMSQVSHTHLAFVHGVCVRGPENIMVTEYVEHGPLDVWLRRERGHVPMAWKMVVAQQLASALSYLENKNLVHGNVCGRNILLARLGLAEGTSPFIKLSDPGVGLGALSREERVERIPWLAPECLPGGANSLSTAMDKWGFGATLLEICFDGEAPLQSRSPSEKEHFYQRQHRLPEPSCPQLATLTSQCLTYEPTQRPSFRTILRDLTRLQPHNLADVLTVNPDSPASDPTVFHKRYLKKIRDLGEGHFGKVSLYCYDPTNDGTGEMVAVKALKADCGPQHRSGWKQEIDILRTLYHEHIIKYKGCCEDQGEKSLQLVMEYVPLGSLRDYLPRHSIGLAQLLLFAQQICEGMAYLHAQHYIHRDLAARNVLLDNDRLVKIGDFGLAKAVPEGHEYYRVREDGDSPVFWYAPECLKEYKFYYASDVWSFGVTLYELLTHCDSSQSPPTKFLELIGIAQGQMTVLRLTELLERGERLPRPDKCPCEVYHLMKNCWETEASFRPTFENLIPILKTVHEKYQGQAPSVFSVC

The next assay deals with JAK2 (Homo sapiens, UniProt O60674). Put plainly: JAK2 Assay (Caliper EZ Reader, fluoresceinated peptide). Particulars: ATP 11.4 μM; JAK2 0.25 nM; 15 minutes at room temperature; read-out: JAK2 inhibition.
Chain of JAK2 (O60674 whole entry, species assumed): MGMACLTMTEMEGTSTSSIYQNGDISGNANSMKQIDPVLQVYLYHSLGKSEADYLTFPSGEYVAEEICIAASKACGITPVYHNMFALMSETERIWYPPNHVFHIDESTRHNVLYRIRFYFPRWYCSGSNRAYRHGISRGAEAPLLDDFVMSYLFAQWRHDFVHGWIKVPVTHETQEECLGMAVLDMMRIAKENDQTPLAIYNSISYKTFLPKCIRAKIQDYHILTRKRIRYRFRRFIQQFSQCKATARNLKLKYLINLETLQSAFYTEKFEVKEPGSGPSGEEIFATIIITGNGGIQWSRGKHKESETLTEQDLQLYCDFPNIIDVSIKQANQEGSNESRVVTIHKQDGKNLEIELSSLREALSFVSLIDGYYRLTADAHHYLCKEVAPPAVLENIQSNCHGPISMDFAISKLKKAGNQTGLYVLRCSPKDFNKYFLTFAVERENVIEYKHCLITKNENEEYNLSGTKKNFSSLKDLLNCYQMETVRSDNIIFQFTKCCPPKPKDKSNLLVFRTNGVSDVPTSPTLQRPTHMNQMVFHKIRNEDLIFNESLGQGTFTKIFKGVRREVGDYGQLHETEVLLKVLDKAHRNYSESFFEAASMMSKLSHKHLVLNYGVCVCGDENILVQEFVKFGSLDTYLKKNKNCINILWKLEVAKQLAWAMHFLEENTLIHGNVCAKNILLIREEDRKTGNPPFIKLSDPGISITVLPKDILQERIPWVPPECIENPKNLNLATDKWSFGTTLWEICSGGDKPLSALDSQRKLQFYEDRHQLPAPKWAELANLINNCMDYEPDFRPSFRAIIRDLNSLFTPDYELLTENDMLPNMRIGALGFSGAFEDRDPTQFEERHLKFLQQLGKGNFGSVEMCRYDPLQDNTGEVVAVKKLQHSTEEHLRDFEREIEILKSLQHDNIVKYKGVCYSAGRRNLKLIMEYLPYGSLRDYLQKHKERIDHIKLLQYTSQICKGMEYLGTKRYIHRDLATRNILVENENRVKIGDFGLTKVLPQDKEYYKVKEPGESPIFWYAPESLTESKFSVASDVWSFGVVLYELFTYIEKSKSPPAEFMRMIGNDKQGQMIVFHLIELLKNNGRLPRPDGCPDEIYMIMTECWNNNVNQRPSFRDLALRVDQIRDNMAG
Another assay addresses T1, JAK3 (Homo sapiens, UniProt P52333).
T1 sequence (P52333 1-1124): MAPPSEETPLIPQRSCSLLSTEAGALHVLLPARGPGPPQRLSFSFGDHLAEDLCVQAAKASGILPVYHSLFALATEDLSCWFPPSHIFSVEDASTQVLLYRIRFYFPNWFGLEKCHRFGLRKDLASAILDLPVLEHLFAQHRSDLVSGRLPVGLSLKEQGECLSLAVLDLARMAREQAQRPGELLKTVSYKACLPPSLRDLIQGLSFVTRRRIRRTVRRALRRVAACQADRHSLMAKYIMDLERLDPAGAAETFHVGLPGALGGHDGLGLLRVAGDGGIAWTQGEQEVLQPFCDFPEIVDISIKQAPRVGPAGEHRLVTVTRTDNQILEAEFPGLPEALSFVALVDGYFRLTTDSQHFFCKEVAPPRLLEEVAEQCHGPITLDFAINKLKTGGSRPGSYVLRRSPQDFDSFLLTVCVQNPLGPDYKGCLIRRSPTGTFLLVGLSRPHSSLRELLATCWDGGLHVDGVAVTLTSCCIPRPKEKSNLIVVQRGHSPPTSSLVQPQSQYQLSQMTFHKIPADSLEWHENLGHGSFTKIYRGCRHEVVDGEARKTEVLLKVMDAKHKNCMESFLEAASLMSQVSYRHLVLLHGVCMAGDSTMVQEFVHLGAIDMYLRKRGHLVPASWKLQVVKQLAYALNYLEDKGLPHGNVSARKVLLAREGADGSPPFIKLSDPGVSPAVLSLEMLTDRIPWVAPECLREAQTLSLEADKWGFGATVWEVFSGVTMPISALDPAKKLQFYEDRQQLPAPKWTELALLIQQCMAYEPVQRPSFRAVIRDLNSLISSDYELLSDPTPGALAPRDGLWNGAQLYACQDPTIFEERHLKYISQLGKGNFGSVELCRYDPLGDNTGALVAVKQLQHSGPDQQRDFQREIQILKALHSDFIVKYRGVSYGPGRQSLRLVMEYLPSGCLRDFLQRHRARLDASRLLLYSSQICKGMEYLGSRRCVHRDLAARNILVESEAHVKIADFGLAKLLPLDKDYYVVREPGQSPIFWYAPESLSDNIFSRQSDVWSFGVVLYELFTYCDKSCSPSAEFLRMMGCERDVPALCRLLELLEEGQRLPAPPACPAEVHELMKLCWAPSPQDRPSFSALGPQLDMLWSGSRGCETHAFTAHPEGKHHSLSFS
The assay is described as follows: JAK3 Assay (Caliper EZ Reader, fluoresceinated peptide). Particulars: ATP 3.5 μM; JAK3 0.5 nM; 30 minutes at room temperature; read-out: JAK3 inhibition.

Chain of JAK1 (P23458 whole entry, species assumed): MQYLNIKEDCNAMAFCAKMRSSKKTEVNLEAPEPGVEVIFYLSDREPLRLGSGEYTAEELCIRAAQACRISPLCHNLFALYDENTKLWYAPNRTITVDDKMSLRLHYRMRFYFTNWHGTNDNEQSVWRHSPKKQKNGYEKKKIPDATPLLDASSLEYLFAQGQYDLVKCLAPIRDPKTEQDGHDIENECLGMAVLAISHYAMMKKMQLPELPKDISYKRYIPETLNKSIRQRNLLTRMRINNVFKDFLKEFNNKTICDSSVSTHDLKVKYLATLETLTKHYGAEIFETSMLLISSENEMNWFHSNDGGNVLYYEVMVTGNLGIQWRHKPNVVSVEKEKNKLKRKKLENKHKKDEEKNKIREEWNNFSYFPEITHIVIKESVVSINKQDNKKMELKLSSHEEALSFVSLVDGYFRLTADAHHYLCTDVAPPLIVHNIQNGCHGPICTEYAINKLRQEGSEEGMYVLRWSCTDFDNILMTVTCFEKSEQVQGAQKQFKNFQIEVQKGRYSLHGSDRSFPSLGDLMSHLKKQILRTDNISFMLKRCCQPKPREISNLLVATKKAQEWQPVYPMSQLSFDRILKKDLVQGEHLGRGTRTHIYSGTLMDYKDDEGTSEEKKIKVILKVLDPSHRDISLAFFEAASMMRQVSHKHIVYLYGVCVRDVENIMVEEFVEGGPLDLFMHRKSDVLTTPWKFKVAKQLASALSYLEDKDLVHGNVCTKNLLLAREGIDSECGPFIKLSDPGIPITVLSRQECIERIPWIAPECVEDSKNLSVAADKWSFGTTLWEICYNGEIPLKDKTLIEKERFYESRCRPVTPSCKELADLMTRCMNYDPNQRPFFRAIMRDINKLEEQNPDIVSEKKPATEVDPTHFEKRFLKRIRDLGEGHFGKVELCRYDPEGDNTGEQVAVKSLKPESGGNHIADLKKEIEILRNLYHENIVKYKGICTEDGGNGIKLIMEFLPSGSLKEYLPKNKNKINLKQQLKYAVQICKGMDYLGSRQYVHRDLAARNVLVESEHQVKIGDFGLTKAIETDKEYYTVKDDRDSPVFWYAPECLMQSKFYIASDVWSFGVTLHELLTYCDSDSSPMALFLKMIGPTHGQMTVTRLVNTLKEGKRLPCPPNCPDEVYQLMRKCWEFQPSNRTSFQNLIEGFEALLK

Regarding `CN(c1ncnc2[nH]ccc12)C1CC2(C1)CN(C(=O)c1ccc(C#N)c(F)c1)C2` [Compound 1, 2-fluoro-4-(6-(methyl(7H-pyrrolo[2,3-d]pyrimidin-4-yl)amino)-2-azaspiro[3.3]heptane-2-carbonyl)benzonitrile], the IC50 at JAK1 was 10 to 100 nM; at TYK2, not below 10000 nM; on JAK2, 1000 to 10000 nM; at JAK3, not below 10000 nM.

In the case of `CN(c1ncnc2[nH]ccc12)C1CC2(C1)CN(C(=O)c1ccc(C#N)cc1F)C2` [Compound 14, 3-fluoro-4-(6-(methyl(7H-pyrrolo[2,3-d]pyrimidin-4-yl)amino)-2-azaspiro[3.3]heptane-2-carbonyl)benzonitrile], the IC50 is 10 to 100 nM on JAK1, not below 10000 nM at TYK2, 100 to 1000 nM on JAK2 and not below 10000 nM on JAK3.

With `COc1ccc(C(=O)N2CC3(CC(N(C)c4ncnc5[nH]ccc45)C3)C2)cc1` [Compound 24, (4-methoxyphenyl)(6-(methyl(7H-pyrrolo[2,3-d]pyrimidin-4-yl)amino)-2-azaspiro[3.3]heptan-2-yl)methanone], the IC50 on JAK1 is 10 to 100 nM; on TYK2, not below 10000 nM; on JAK2, 1000 to 10000 nM; on JAK3, not below 10000 nM.

For `CN(c1ncnc2[nH]ccc12)C1CC2(C1)CN(C(=O)c1ccc(Cl)cc1)C2` [Compound 25, (4-chlorophenyl)(6-(methyl(7H-pyrrolo[2,3-d]pyrimidin-4-yl)amino)-2-azaspiro[3.3]heptan-2-yl)methanone], the IC50 was 10 to 100 nM at JAK1, not below 10000 nM at TYK2, 1000 to 10000 nM at JAK2 and not below 10000 nM on JAK3.

As for `C#Cc1ccc(C(=O)N2CC3(CC(N(C)c4ncnc5[nH]ccc45)C3)C2)cc1` [Compound 26, (4-ethynylphenyl)(6-(methyl(7H-pyrrolo[2,3-d]pyrimidin-4-yl)amino)-2-azaspiro[3.3]heptan-2-yl)methanone], the IC50 is not above 10 nM at JAK1, 1000 to 10000 nM on TYK2, 100 to 1000 nM at JAK2 and not below 10000 nM at JAK3.

In the case of `CN(c1ncnc2[nH]ccc12)C1CC2(C1)CN(C(=O)c1ccc(F)cc1)C2` [Compound 27, (4-fluorophenyl)(6-(methyl(7H-pyrrolo[2,3-d]pyrimidin-4-yl)amino)-2-azaspiro[3.3]heptan-2-yl)methanone], the IC50 at JAK1 is 10 to 100 nM; on TYK2, not below 10000 nM; on JAK2 it was 1000 to 10000 nM; on JAK3 it was not below 10000 nM.

Take `Cc1ccsc1C(=O)N1CC2(CC(N(C)c3ncnc4[nH]ccc34)C2)C1` [Compound 28, (6-(methyl(7H-pyrrolo[2,3-d]pyrimidin-4-yl)amino)-2-azaspiro[3.3]heptan-2-yl)(3-methylthiophen-2-yl)methanone]: the IC50 is 10 to 100 nM on JAK1, not below 10000 nM at TYK2, 100 to 1000 nM on JAK2 and not below 10000 nM at JAK3.

With `CN(c1ncnc2[nH]ccc12)C1CC2(C1)CN(C(=O)c1cc3ccccc3[nH]1)C2` [Compound 30, (1H-indol-2-yl)(6-(methyl(7H-pyrrolo[2,3-d]pyrimidin-4-yl)amino)-2-azaspiro[3.3]heptan-2-yl)methanone], the IC50 on JAK1 is 10 to 100 nM; at TYK2, 1000 to 10000 nM; at JAK2, 100 to 1000 nM; at JAK3 it was not below 10000 nM.

For `CN(c1ncnc2[nH]ccc12)C1CC2(C1)CN(C(=O)c1ccc(C(F)(F)F)cc1)C2` [Compound 31, (6-(methyl(7H-pyrrolo[2,3-d]pyrimidin-4-yl)amino)-2-azaspiro[3.3]heptan-2-yl)(4-(trifluoromethyl)phenyl)methanone], the IC50 is 100 to 1000 nM at JAK1, not below 10000 nM on TYK2, 1000 to 10000 nM on JAK2 and not below 10000 nM at JAK3.

`CN(c1ncnc2[nH]ccc12)C1CC2(C1)CN(C(=O)c1ccc(Cl)cn1)C2` [Compound 32, (5-chloropyridin-2-yl)(6-(methyl(7H-pyrrolo[2,3-d]pyrimidin-4-yl)amino)-2-azaspiro[3.3]heptan-2-yl)methanone]: the IC50 on JAK1 was 10 to 100 nM; at TYK2, not below 10000 nM; on JAK2 it was 1000 to 10000 nM; on JAK3 it was not below 10000 nM.

`CN(c1ncnc2[nH]ccc12)C1CC2(C1)CN(C(=O)Nc1cccc(Cl)c1)C2` [Compound 33, N-(3-chlorophenyl)-6-(methyl(7H-pyrrolo[2,3-d]pyrimidin-4-yl)amino)-2-azaspiro[3.3]heptane-2-carboxamide]: the IC50 was 100 to 1000 nM at JAK1, not below 10000 nM at TYK2, 1000 to 10000 nM at JAK2 and not below 10000 nM on JAK3.

Turning to `CN(c1ncnc2[nH]ccc12)C1CC2(C1)CN(C(=O)c1ccc(C#N)c(F)c1F)C2` [Compound 53, 2,3-difluoro-4-(6-(methyl(7H-pyrrolo[2,3-d]pyrimidin-4-yl)amino)-2-azaspiro[3.3]heptane-2-carbonyl)benzonitrile], the IC50 at JAK1 was not above 10 nM; at TYK2, 1000 to 10000 nM; at JAK2, 100 to 1000 nM; on JAK3 it was 1000 to 10000 nM.

With `CN(c1ncnc2[nH]ccc12)C1CCC2(CC1)CCN(C(=O)c1cc3ccccc3s1)CC2` [Compound 105, Benzo[b]thiophen-2-yl-{9-[methyl-(7H-pyrrolo[2,3-d]pyrimidin-4-yl)-amino]-3-aza-spiro[5.5]undec-3-yl}-methanone], the IC50 lay in the range of 100 to 1000 nM at JAK1, 100 to 1000 nM on JAK2 and 1000 to 10000 nM at JAK3.
